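Compound exposure: 48 hours, 5 concentrations, 96-well plates. The concentration for 50% growth inhibition is given as GI50.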 Calls of active or inactive are those of the source. Cut-off read from the data, not from the text of the source: active = GI50 up to about 1.1 µM and inactive = higher.
Key:
Experiment in all cases: DTP human tumour cell line panel, 48 h
M14 = tested on: M14
BT-549 = tested on: BT-549
SNB-75 = tested on: SNB-75
K562 = tested on: K562
SK-MEL-2 = tested on: SK-MEL-2
MDA-N = tested on: MDA-N
OVCAR-5 = tested on: OVCAR-5
SN12C = tested on: SN12C
IGROV-1 = tested on: IGROV-1
A498 = tested on: A498
MDA-MB-435 = tested on: MDA-MB-435
NCI-H522 = tested on: NCI-H522
OVCAR-3 = tested on: OVCAR-3
NCI-H460 = tested on: NCI-H460
RPMI-8226 = tested on: RPMI-8226
SW-620 = tested on: SW-620
COLO 205 = tested on: COLO 205
T47D = tested on: T47D
U-251 = tested on: U-251
HOP-62 = tested on: HOP-62

Measured: GI50

CCCCCCc1cc2cc(-c3csc(CC#N)n3)c(=O)oc2cc1O
inactive: M14 > 100 µM | BT-549 6.17 µM | SNB-75 32.1 µM | K562 > 69.2 µM | SK-MEL-2 > 100 µM | MDA-N > 100 µM | OVCAR-5 > 100 µM | SN12C 99.1 µM | IGROV-1 29.8 µM | A498 56 µM | MDA-MB-435 > 100 µM | NCI-H522 10.4 µM | OVCAR-3 11.1 µM | NCI-H460 8.55 µM | RPMI-8226 32.4 µM | SW-620 26.2 µM | COLO 205 > 100 µM | T47D > 100 µM | U-251 6.4 µM | HOP-62 34.9 µM

OC(C1CCCC1=N/N=C1/CCCC1C(O)(C(F)(F)Cl)C(F)(F)Cl)(C(F)(F)Cl)C(F)(F)Cl (stereo not given)
inactive: M14 > 10 µM | BT-549 > 10 µM | SNB-75 > 10 µM | K562 > 10 µM | SK-MEL-2 > 10 µM | MDA-N > 10 µM | OVCAR-5 > 10 µM | SN12C > 10 µM | IGROV-1 > 10 µM | A498 > 10 µM | MDA-MB-435 > 10 µM | NCI-H522 > 10 µM | OVCAR-3 > 10 µM | NCI-H460 > 10 µM | RPMI-8226 > 10 µM | SW-620 > 10 µM | COLO 205 > 10 µM | T47D > 10 µM | U-251 > 10 µM | HOP-62 > 10 µM

O=C(NCCCN1CCN(CCCNC(=O)c2cc(-c3ccccc3)nc3ccccc23)CC1)c1cc(-c2ccccc2)nc2ccccc12
inactive: M14 2.28 µM | BT-549 17.6 µM | SNB-75 > 38.1 µM | K562 5.02 µM | SK-MEL-2 16.3 µM | MDA-N 5.64 µM | OVCAR-5 29.6 µM | SN12C 16.3 µM | IGROV-1 9.53 µM | A498 33.9 µM | MDA-MB-435 4.15 µM | NCI-H522 14 µM | OVCAR-3 27.7 µM | NCI-H460 9.2 µM | RPMI-8226 7.8 µM | SW-620 9.71 µM | COLO 205 8.77 µM | T47D 8.99 µM | U-251 12.5 µM | HOP-62 16.1 µM

COc1ccccc1NC1=NCC(C)S1 (stereo not given)
inactive: M14 > 100 µM | BT-549 > 100 µM | SNB-75 > 100 µM | K562 > 100 µM | SK-MEL-2 > 100 µM | MDA-N > 100 µM | OVCAR-5 > 100 µM | SN12C > 100 µM | IGROV-1 > 100 µM | A498 > 100 µM | MDA-MB-435 > 100 µM | NCI-H522 > 100 µM | OVCAR-3 > 100 µM | NCI-H460 > 100 µM | RPMI-8226 > 100 µM | SW-620 > 100 µM | COLO 205 > 100 µM | T47D > 100 µM | U-251 > 100 µM | HOP-62 > 100 µM

CC(=O)OCC1OC(Oc2cc(C)c(O)cc2C/C=C(\C)CC/C=C(\C)C[C@@H](C=C(C)C)OC(C)=O)C(O)C(OC(C)=O)C1OC(C)=O (stereo not given in full)
inactive: M14 23.3 µM | BT-549 16.8 µM | SNB-75 13.2 µM | K562 11.6 µM | SK-MEL-2 19.9 µM | MDA-N 25.2 µM | OVCAR-5 > 50 µM | SN12C 20.2 µM | IGROV-1 33.6 µM | A498 15.2 µM | MDA-MB-435 16.5 µM | NCI-H522 17.1 µM | OVCAR-3 13.4 µM | NCI-H460 14.2 µM | RPMI-8226 9.84 µM | SW-620 23.6 µM | COLO 205 9.38 µM | T47D 10.1 µM | U-251 25.5 µM | HOP-62 28.4 µM

Cc1cc2nc(-c3c(F)cccc3F)n(Cc3c(F)cccc3F)c2cc1C
inactive: M14 12.2 µM | BT-549 13.2 µM | SNB-75 3.37 µM | K562 11 µM | SK-MEL-2 15.8 µM | MDA-N 16 µM | OVCAR-5 16.6 µM | SN12C 16.4 µM | IGROV-1 14.3 µM | A498 20.1 µM | MDA-MB-435 14.7 µM | NCI-H522 12.7 µM | OVCAR-3 16.4 µM | NCI-H460 13.6 µM | RPMI-8226 5.28 µM | SW-620 16.3 µM | COLO 205 15.2 µM | T47D 14.8 µM | U-251 11.1 µM | HOP-62 14.4 µM

CC1(C)CCCCCCC2OC2CCCCCC(C)(C)C1=O (stereo not given)
inactive: M14 32.8 µM | BT-549 27.5 µM | SNB-75 28 µM | K562 30 µM | SK-MEL-2 31.8 µM | MDA-N 35.8 µM | OVCAR-5 > 62.1 µM | SN12C > 44.8 µM | IGROV-1 47.8 µM | A498 > 84.9 µM | MDA-MB-435 35.5 µM | NCI-H522 22.1 µM | OVCAR-3 34.1 µM | NCI-H460 36.1 µM | RPMI-8226 32.5 µM | SW-620 52.4 µM | COLO 205 14.4 µM | T47D 29.9 µM | U-251 24.3 µM | HOP-62 49.8 µM
